AC50 data for 14 compounds are collected here from patent US20250092036A1, “COMPOUNDS AND COMPOSITIONS FOR MODULATING THE ACTIVITY OF ERK” (Novartis AG, priority 2023, published 2025).

Assay [1] concerns the target T1, ERK2[2-360(p-T185/p-Y187)]-Avi (Homo sapiens, UniProt P28482).
T1 construct: 400 pM ERK2[2-360(p-T185/p-Y187)]-Avi was added to the plate
The experiment in a line: Biochemical assay (HTRF competition assay). The settings on record: HTRF competition with Example 15 probe, overnight at RT; read-out: Biochemical qualified AC50. It counts as binding. As for the experimental part:
The competition assays were performed at RT in a 384-well white polystyrene, flat bottom plate (Greiner #784075) using a final reaction volume of 15 μL and the following assay buffer conditions: 50 mM MOPS, pH 7.2, 10 mM MgCl2, 0.5 mM TCEP, 0.01% Triton-X-100. 75 nL of a 10 mM compound solution in DMSO or 100% DMSO (12 point titration, final concentration: 50 μM-300 pM; final DMSO: 0.5%) was added using an acoustic liquid handler (Echo, Beckman Coulter) to wells containing 7.5 μL of 1-(6-((R)-3-(1-(5-chloro-1-((tetrahydro-2H-pyran-4-yl)methyl)-1H-indole-3-carbonyl)-4-(4-fluorophenyl)piperidine-4-carboxamido)pyrrolidin-1-yl)-6-oxohexyl)-3,3-dimethyl-5-sulfo-2-((1E,3E)-5-((E)-1,3,3-trimethyl-5-sulfoindolin-2-ylidene)penta-1,3-dien-1-yl)-3H-indol-1-ium (Example 15); 7.5 μL 400 pM SA-Tb (Cisbio, 610SATLB) and 400 pM ERK2[2-360(p-T185/p-Y187)]-Avi was added to the plate and incubated overnight at RT. HTRF signal was measured using a microplate reader (PheraStar, BMG Labtech) with excitation and emission wavelengths of […], respectively. The inhibitor dose-response curves were analyzed from the HTRF ratio signal using normalized IC50 regression curve fitting with control-based normalization.
(In general: In TR-FRET formats the signal depends on donor and acceptor labels being close together.)

Assay [2] concerns the target T2, nanobit-large-bit-ERK2 and nanobit-small-bit-PEA15 in WM793 cells (Homo sapiens, UniProt P28482).
T2 construct: expressed in transfected cells
Kind of assay: NanoBiT assay. It counts as cell-based. The settings on record: WM793 nanobit stable cell line, overnight incubation; read-out: NanoBiT qualified absolute AC50. As for the experimental part:
(§1) Cancer cell media was prepared by adding 500 mL of RPMI (ThermoFisher cat ##22400-089) and 10% Fetal Bovine Serum (Gibco) for WM793 cells (ATCC Cat #CRL-2806, RRID: CVCL 8787) and F12K (Thermo Fisher cat #21127-022, 500 mL; or 21127-030, 10×500 mL)+10% FBS for PC3 (ATCC CRL-1435) cells. The entire media with supplements was filter sterilized through a 0.4 μm bottle top filter system. Cancer cell lines were detached from traditional cell culture flasks by washing three times with 1×PBS and adding an appropriate amount of 0.25% TrypLE™ Express Enzyme (1×), no phenol red (ThermoFisher cat #12604013) to create a thin layer over the cells. Trypsin was neutralized with media containing serum and proceeded to count the cells.
A nanobit stable cell line was generated using WM793 cells with nanobit-large-bit-ERK2 and nanobit-small-bit-PEA15. […] In a biological safety cabinet, cells were seeded using a sterilized small stainless steel tipped cassette on a Multi-drop Combi. Between different cell lines, the tubing of the cassette was flushed with 1× sterile PBS for 10 s. Alternatively, cells can be seeded using a Multi-flow located within a Hepa filtered robotics room using either a sterilized small sapphire jewel tipped cassette and the peristatic pump, or the attached syringe pump, depending on volume of plates per cell line needed. The plates were placed in an incubator set at 37° C., with 5% CO2 and 95% relative humidity. A 10-point, 3-fold serial dilution of compounds was prepared in 100% DMSO on a liquid handling robot with a 10 mM top concentration. 90 nl/well was dispensed in three assay plates/1 compound source plate, with the highest concentration at 30 μM. After addition of compound was complete, the plates were placed into an incubator at 37° C., with 5% CO2 and 95% relative humidity for overnight. Luminescence was captured on a plate luminometer such as an Envision or View Lux to measure Day 0 time point both select cell lines. LUM plus, gain 3500, 0.1 s and focal height 12.5 [mm] on PheraStar reader. The raw data was extracted from the instrument and normalized all fields containing test compounds to the average of all wells containing DMSO alone as neutral control. From this value, the percent growth inhibition was calculated for each compound. Dose response curves and inhibitory IC50s were generated by graphing the normalized data values against the compound concentration using either a program such as GraphPad™ or Excel Fit.

Assay [3] relates to WM793 cells. The experiment in a line: Cell proliferation assay (CellTiter-Glo). The settings on record: 3 d, read-out: Cell proliferation qualified AC50. It counts as cell-based. As for the experimental part:
as §1
After counting the cells, the concentration of the cell solution was adjusted to seed a total of 750 cells per well in 50 μL of complete media into 384-well tissue culture treated plates. In a biological safety cabinet, cells were seeded using a sterilized small stainless steel tipped cassette on a Multi-drop Combi. Between different cell lines, the tubing of the cassette was flushed with 1× sterile PBS for 10 seconds. Alternatively, cells can be seeded using a Multi-flow located within a Hepa filtered robotics room using either a sterilized small sapphire jewel tipped cassette and the peristatic pump, or the attached syringe pump, depending on volume of plates per cell line needed. The plates were placed in an incubator set at 37° C., with 5% CO2 and 95% relative humidity. A 10-point, 3-fold serial dilutions of compounds in 100% DMSO was prepared on a liquid handling robot with a 10 mM top concentration. 100 nL/well in three assay plates/1 compound was dispensed to source plate, with the highest concentration at 20 μM. After addition of compound was complete, plates were placed into an incubator at 37° C., with 5% CO2 and 95% relative humidity for 3 d. An adequate volume of CellTiter-Glo® (Promega #G7571) detection reagent was pre-warmed to RT or in a 37° C. H2O bath. 25 μL of the reagent was added to each well using either a Multi-drop Combi or MultiFlo and incubate at RT for at least 15 min. Luminesce was captured on a plate luminometer such as an Envision or View Lux to measure Day 0 time point both select cell lines. LUM plus, gain 3500, 0.1 s and focal height 12.5 mm on PheraStar reader. At Day 3, an adequate volume of CellTiter-Glo® detection reagent was pre-warmed at RT or in a 37° C. H2O bath. A total of 25 μL of the reagent was added to each well using either a Multi-drop Combi or MultiFlo and incubate at RT for at least 15 min. Luminesce was captured on a plate luminometer such as an Envision or View Lux to measure Day 3 time point both select cell lines. LUM plus, gain 3500, 0.1 s and focal height 12.5 mm on PheraStar reader. Raw data was extracted from the instrument and all fields containing test compounds were normalized to the average of all wells containing DMSO alone from Day 3 as neutral control and Day 0 starting numbers. From this value, percent growth inhibition of each compound was calculated. Dose response curves and growth inhibitory IC50s were generated by graphing the normalized data values against the compound concentration using a program such as GraphPad™ or Excel Fit.

Read-outs that look alike come from different tables or passages of the source.

T1 sequence (P28482 2-360 limits assumed): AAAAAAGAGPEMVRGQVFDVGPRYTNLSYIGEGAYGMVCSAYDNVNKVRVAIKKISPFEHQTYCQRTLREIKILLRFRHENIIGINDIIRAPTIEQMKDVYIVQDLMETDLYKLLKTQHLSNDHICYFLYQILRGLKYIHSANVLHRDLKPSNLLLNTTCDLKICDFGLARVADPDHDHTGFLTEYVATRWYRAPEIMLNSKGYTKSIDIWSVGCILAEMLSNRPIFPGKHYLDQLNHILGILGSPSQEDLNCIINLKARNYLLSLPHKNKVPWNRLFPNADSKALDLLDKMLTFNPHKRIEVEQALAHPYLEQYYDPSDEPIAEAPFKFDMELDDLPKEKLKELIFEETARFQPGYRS
T2 sequence (P28482 whole entry): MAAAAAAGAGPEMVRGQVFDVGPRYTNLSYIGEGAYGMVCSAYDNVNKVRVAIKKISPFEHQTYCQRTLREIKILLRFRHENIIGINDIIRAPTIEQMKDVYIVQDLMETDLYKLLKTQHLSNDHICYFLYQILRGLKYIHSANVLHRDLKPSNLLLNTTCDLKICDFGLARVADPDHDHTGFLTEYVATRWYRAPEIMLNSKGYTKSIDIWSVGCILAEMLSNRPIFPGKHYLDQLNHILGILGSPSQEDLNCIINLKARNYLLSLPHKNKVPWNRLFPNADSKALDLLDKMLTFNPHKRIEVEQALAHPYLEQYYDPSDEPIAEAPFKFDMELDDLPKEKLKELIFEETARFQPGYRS

In the case of `CO[C@H]1CC[C@H](Cc2c(C)n(C(=O)N3CCC(C(=O)N[C@H]4CC[C@H](C(=O)O)CC4)(c4ccc(F)cc4)CC3)c3cc(F)ccc23)CC1` [Example 1c], the AC50 in assay [1] came to 1.3 nM; in assay [2], 390 nM; in assay [3] (Homo sapiens, WM793, 72 h) it was 940 nM.
As to `CCc1c(C[C@H]2CC[C@H](OC3CCOCC3)CC2)c2ccc(F)cc2n1C(=O)N1CCC(C(=O)N[C@H]2C[C@H](C(=O)O)C[C@@H]2C)(c2ccc(F)cc2)CC1` [Example 1d], the AC50 in assay [1] is under 0.28 nM; in assay [2], 300 nM; in assay [3] (Homo sapiens, WM793, 72 h), 110 nM.
Take `CCc1c(C[C@H]2CC[C@H](OC3CCOCC3)CC2)c2ccc(F)cc2n1C(=O)N1CCC(C(=O)N[C@H]2CC[C@H](C(=O)O)CC2(C)C)(c2ccc(F)cc2)CC1` [Example 1e]: the AC50 in assay [1] was under 0.28 nM; in assay [2], 19 nM; in assay [3] (Homo sapiens, WM793, 72 h) it was 70 nM.
Taken in the same sequence, the figures for `COCCc1c(C[C@H]2CC[C@H](OC(C)C)CC2)c2cc(F)c(F)cc2n1C(=O)N1CCC(C(=O)N[C@H]2CC[C@H](C(=O)O)C[C@@H]2C)(c2ccc(F)cc2)CC1` [Example 1f] were under 0.28 nM, 140 nM and 52 nM.
As for `COCCc1c(C[C@H]2CC[C@H](OC(C)C)CC2)c2ccc(Cl)cc2n1C(=O)N1CCC(C(=O)N[C@H]2CC[C@H](C(=O)O)C[C@@H]2C)(c2ccc(F)cc2)CC1` [Example 1g], the AC50 is under 0.28 nM in assay [1]; 210 nM in assay [2]; 93 nM in assay [3] (Homo sapiens, WM793, 72 h).
`CCc1c(CC2CCOCC2)c2ccc(F)cc2n1C(=O)N1CCC(C(=O)N[C@H]2CC[C@H](C(=O)O)C[C@@H]2C)(c2ccc(F)cc2)CC1` [Example 1h]: the AC50 in assay [1] is under 0.28 nM; in assay [2] it was 55 nM; in assay [3] (Homo sapiens, WM793, 72 h), 16 nM.
Taken in the same sequence, the figures for `Cc1c(CC2CCC(OC(C)C)CO2)c2ccc(F)cc2n1C(=O)N1CC[C@@](C(=O)N[C@H]2CC[C@H](C(=O)O)C[C@@H]2C)(c2ccc(F)cc2)C[C@@H]1C` (stereo partly drawn) [Example 1i] were under 0.28 nM, 31 nM and 15 nM.
For `CCc1c(C[C@H]2CC[C@H](OC3CCOCC3)CC2)c2ccc(F)cc2n1C(=O)N1CC[C@@](C(=O)N[C@H]2CC[C@H](C(=O)O)C[C@@H]2C)(c2ccccc2)C[C@@H]1C` [Example 1j], the AC50 was under 0.28 nM in assay [1]; 30 nM in assay [2]; 29 nM in assay [3] (Homo sapiens, WM793, 72 h).
Consider `CCc1c(C[C@H]2CC[C@H](OC3CCOCC3)CC2)c2ccc(F)cc2n1C(=O)N1CCC(C(=O)N[C@H]2CC[C@H](C(=O)O)C[C@@H]2C)(c2ccc(Cl)nc2)CC1` [Example 1k], for which the AC50 was found to be 0.48 nM in assay [1]; 250 nM in assay [2]; 33 nM in assay [3] (Homo sapiens, WM793, 72 h).
Regarding `Cc1c(C[C@H]2CC[C@H](OC(C)C)CC2)c2ccc(F)cc2n1C(=O)N1CC[C@@](C(=O)N[C@H]2CC[C@H](C(=O)O)C[C@@H]2C)(c2ccc(F)cc2)C[C@@H]1C` [Example 1l], the AC50 in assay [1] was under 0.28 nM; in assay [2], 270 nM; in assay [3] (Homo sapiens, WM793, 72 h), 18 nM.
`CCc1c(C[C@H]2CC[C@H](OC(C)C)CC2)c2ccc(F)cc2n1C(=O)N1CCC(C(=O)N[C@H]2CC[C@H](C(=O)O)C[C@@H]2C)(c2ccc(F)cc2)CC1` [Example 2, (1S,3S,4S)-4-(1-(2-ethyl-6-fluoro-3-(((1r,4S)-4-isopropoxycyclohexyl)methyl)-1H-indole-1-carbonyl)-4-(4-fluorophenyl)piperidine-4-carboxamido)-3-methylcyclohexane-1-carboxylic acid]: the AC50 is under 0.28 nM in assay [1], 190 nM in assay [2] and 110 nM in assay [3].
In the case of `COCCc1c(C[C@H]2CC[C@H](OC(C)C)CC2)c2ccc(F)cc2n1C(=O)N1CCC(C(=O)N[C@H]2CC[C@H](C(=O)O)C[C@@H]2C)(c2ccc(F)cc2)CC1` [Example 3, (1S,3S,4S)-4-(1-(6-fluoro-3-(((1r,4S)-4-isopropoxycyclohexyl)methyl)-2-(2-methoxyethyl)-1H-indole-1-carbonyl)-4-(4-fluorophenyl)piperidine-4-carboxamido)-3-methylcyclohexane-1-carboxylic acid], the AC50 in assay [1] turned out to be 0.5 nM; in assay [2] it was 46 nM; in assay [3] (Homo sapiens, WM793, 72 h) it was 60 nM.
Consider `C[C@H]1C[C@@H](C(=O)O)CC[C@@H]1NC(=O)[C@@]1(c2ccc(F)cc2)CCN(C(=O)N2CCc3ccc(F)cc32)[C@@H](C)C1` [Example 4b], for which the AC50 in assay [1] came to 0.32 nM; in assay [2], 260 nM; in assay [3] (Homo sapiens, WM793, 72 h), 220 nM.
Regarding `CCc1c(C[C@H]2CC[C@H](OC3CCOCC3)CC2)c2ccc(F)cc2n1C(=O)N1CC[C@@](C(=O)N[C@H]2CC[C@H](C(=O)O)C[C@@H]2C)(c2ccc(F)cc2)C[C@@H]1C` [Example 6, (1S,3S,4S)-4-((2S,4S)-1-(2-ethyl-6-fluoro-3-(((1r,4S)-4-((tetrahydro-2H-pyran-4-yl)oxy)cyclohexyl)methyl)-1H-indole-1-carbonyl)-4-(4-fluorophenyl)-2-methylpiperidine-4-carboxamido)-3-methylcyclohexane-1-carboxylic acid], the AC50 is 0.98 nM in assay [1], 72 nM in assay [2] and 23 nM in assay [3].
